One experiment concerns the target T1, Mek-1 (Homo sapiens, UniProt Q02750).
T1 construct: c-Raf-1 and Mek-1, immunoprecipitated from MDA-MB-231 cells; endogenous in cells; host or cells: MDA-MB-231
As to the kind of experiment: In vitro kinase assay, Mek-1 immunoprecipitated from MDA-MB-231 cells. The format is biochemical. The settings on record: immunoprecipitated kinase treated in vitro, 10 μM. As to the method:
In Vitro Kinase Assays—MDA-MB-231 cells (2×10^6) were lysed for 30 minutes at 4° C. in RIPA-150 buffer (10 mM Tris pH 7.5, 150 mM NaCl, 10% glycerol, 5 mM EDTA, 1% Triton X-100, 0.1% SDS, 100 μM sodium orthovanadate, 1 μM aprotinin, 10 μM leupeptin, 10 μM antipain). Cell debris was pelleted at 13000 rpm for 15 minutes at 4° C. and the lysate was rocked overnight with 10 μg of either c-Raf or MEK antibodies (Santa Cruz Biotechnologies, Santa Cruz, Calif.). 25 μl of protein A/G PLUS agarose (Santa Cruz Biotechnology) was then added and rocked for 4 hours at 4° C. Samples were spun at 2000 rpm for 5 minutes to collect the agarose beads, which were then washed four times with lysis buffer. On the final wash each pellet was divided into 5. […]

The subject of the next experiment is Rap-1. The experiment in a line: Rap-1 activation assay, ACHN cells. It is filed as cell-based, human. Particulars: 10 μM, 1 hour. As to the method:
The effect of B2AR stimulation on Rap1 was investigated using the following methods: A Rap-1 activation assay kit (Upstate, Temecula, Calif.) was used according to protocol to determine if stimulation of the B2AR by ARA-211, and subsequent downstream signaling resulting in inhibition of P-Erk 1/2, is mediated by activation of Rap-1 directly by the Rap-1 guanine nucleotide exchange factor Epac. […] Cells were incubated with drugs for 1 hour unless noted otherwise. Cells were then lysed, the positive control lysate was incubated with 10 mM EDTA and 100 μM GTPγS and incubated for 30 minutes to load GTP onto Rap-1. Lysates from all samples were then incubated with 25 μg GST-RalGDS-Rap-1 binding domain beads for 45 minutes, washed with assay buffer 3×, resuspended in 40 μl of 2×Laemmli sample buffer and boiled for 5 minutes. Samples were resolved by SDS-PAGE electrophoresis, transferred to nitrocellulose, blotted overnight with 1 μ/ml polyclonal anti-Rap-1, and visualized by chemiluminescence.

Another experiment concerns MDA-MB-231 cells. As to the kind of experiment: Alamar Blue proliferation assay, MDA-MB-231. The format is cell-based, human. Particulars: MDA-MB-231; with ARA-211. As to the method:
Cell Lines and Transfections—All cell lines used were obtained from American Type Tissue Collection (ATCC), (Manassas, Va.), or from the DCTD Tumor Repository, (Frederick, Md.). Propagation was carried out according to ATCC protocols. Propagation media was obtained from Invitrogen Corporation (Carlsbad, Calif.). DNA transfections were carried out using TransIT-LT1 transfection reagent (Takara Mirus, Madison, Wis.) according to the manufacturer's protocol. Briefly, 4×10^5 MDA-MB-231 cells were grown to approximately 70% confluency in medium supplemented with 10% FBS (Atlanta Biologicals, Atlanta, Ga.) in the absence of antibiotics. For transfection, LT1 was pre-incubated in 200 μl per transfection in Opti-MEM (Invitrogen) for 20 minutes prior to addition of plasmid. […]
Alamar Blue proliferation assay—For proliferation assays using exogenous constitutively activated MEK or the B2AR antagonist ICI-118.551, Alamar Blue metabolism assay used to determine cell viability according to the manufacturers protocol (Biosource, Camarillo, Calif.). […] Media/Alamar Blue was removed from the cells and aliquoted into 96 well plates (100 μl per well) and fluorescence read on a Wallac Victor 2 plate reader at excitation 540 nm, and emission 615 nm.

The next experiment concerns P-Erk 1/2. As to the kind of experiment: P-Erk 1/2 levels (Western blotting), MDA-MB-231. The settings on record: MDA-MB-231; with ARA-211. The format is cell-based, human. On the procedure: Western Blotting—Treated cell samples were lysed in 30 mM HEPES, 10 mM NaCl, 5 mM MgCl2, 25 mM NaF, 1 mM EGTA, 1% Triton-X-100, 10% Glycerol, 2 mM Sodium orthovanidate, 10 μg/mL aprotinin, 10 μg/mL soybean trypsin inhibitor, 25 μg/mL leupeptin, 2 mM phenylmethylsulfonylfluoride (PMSF), 6.4 mg/mL p-nitrophenylphosphate for 30 minutes at 4° C., and proteins run on SDS-PAGE gels then transferred to nitrocellulose membranes. Membranes were blocked in either 5% milk in PBS, pH 7.4, containing 0.1% Tween-20 (PBS-T) or 1% BSA in TBS, pH 7.5, containing 0.1% Tween-20 (TBS-T). Phospho-STAT3 and phospho-AKT antibodies were diluted in 1% BSA in TBS-T while phospho-c-Raf, phospho-Mek, and phospho-p44/p42 MAPK antibodies (Cell Signaling) were diluted in 5% milk in PBS-T for either 1 hour at room temperature or overnight at 4° C. HRP-conjugated secondary antibodies (Jackson ImmunoResearch, West Grove, Pa.) were diluted in 5% milk in PBS-T or TBS-T at a 1:1000 dilution for one hour at room temperature. Western blots results were visualized using enhanced chemiluminescence. Stripping of the membranes for reblotting was done using stripping buffer (62.5 mM Tris pH 7.6, 2% SDS, 0.7% 2-mercaptoethanol) at 50° C. for 30 minutes.
(In western blotting, separated proteins are transferred to a membrane and probed.)

The values that follow come from patent US7713960B2, “Inhibition of the Raf/Mek/P-Erk pathway for treating cancer” (University of South Florida, priority 2005, dated 2010).

T1 sequence (Q02750 whole entry): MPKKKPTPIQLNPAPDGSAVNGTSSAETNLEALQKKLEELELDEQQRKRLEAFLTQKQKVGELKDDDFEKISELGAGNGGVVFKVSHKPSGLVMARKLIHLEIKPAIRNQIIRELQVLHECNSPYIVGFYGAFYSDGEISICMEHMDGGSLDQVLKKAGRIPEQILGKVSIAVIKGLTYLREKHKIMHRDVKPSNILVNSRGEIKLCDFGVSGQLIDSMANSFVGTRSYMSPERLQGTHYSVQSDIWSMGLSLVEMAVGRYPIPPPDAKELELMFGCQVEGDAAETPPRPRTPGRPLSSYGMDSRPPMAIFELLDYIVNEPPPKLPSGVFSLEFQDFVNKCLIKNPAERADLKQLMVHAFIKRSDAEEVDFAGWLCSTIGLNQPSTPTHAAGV

Turning to `N#CC(=C(/N)Sc1ccccc1N)/C(C#N)=C(\N)Sc1ccccc1N` [U-0126], the “in vitro Mek-1 kinase activity” value on Mek-1 is “blocked”. Consider `O=S(=O)(NCCNC/C=C/c1ccc(Br)cc1)c1cccc2cnccc12` [H89], for which, in the experiment with Rap-1, the “Rap-1 activation (GTP-loaded Rap-1)” value was “had no effect on Rap-1 activation”. The same measure, in the same setting: the value for `CO[C@@H]1[C@@H]2OP(=O)(O)OC[C@H]2O[C@H]1n1c(Sc2ccc(Cl)cc2)nc2c(N)ncnc21` [EPAC activator, 8-(4-chlorophenylthio)-2′-O-methyladenosine-3′,5′-cyclic monophosphate] was “activated Rap-1”. Turning to `Cc1ccc(OCC(O)C(C)NC(C)C)c2c1CCC2` (stereo not drawn) [ICI 118, 551], the “effect of β2 AR antagonist on ARA-211 inhibition of tumor cell growth” value with MDA-MB-231 cells is “rescued human cancer cells from ARA-211 inhibition of tumor cell growth”. The “effect of β2 antagonist on ARA-211 suppression of P-Erk 1/2 levels” value in the experiment on P-Erk 1/2 is “prevented ARA-211 from suppressing P-Erk 1/2 levels”. With `CC(C)NCC(O)c1ccc(O)c(O)c1` (stereo not drawn) [isoproterenol], in the experiment with Rap-1, the “Rap-1 activation (GTP-loaded Rap-1)” value is listed as “activated Rap-1”.
